In publication PMC10139140, “Synthesis of Novel 2-(Cyclopentylamino)thiazol-4(5H)-one Derivatives with Potential Anticancer, Antioxidant, and 11β-HSD Inhibitory Activities” (International Journal of Molecular Sciences, 2023):
Entries after “also recorded” stand apart in the source; their conditions may differ.

Tests used:
U-118 MG cells [1] = experiment: Reactive oxygen species level (dihydroethidium probe), U-118 MG; type: cell-based; settings: 500 µM, 72 h
Protocol: (§1) The BJ (CRL-2522), Caco-2 (HTB-37), PANC-1 (CRL-1469), U-118 MG (HTB-15), SK-MEL-30 (ACC 151), and MDA-MB-231 (HTB-26) cell lines were purchased from ATCC (Manassas, VA, USA) or DSMZ (Braunschweig, GERMANY). Cells were cultured in accordance with manufacturers' recommendations in a DMEM, MEM, or RPMI-1640 (Sigma, Saint Louis, MO, USA; Gibco, Waltham, MA, USA), supplemented with 10% FBS, except for Caco-2 (20%) (Thermo Fisher Scientific, Waltham, MA, USA) and 1% antibiotic mix solution (penicillin, streptomycin; Thermo Fisher Scientific, Waltham, MA, USA) in a humidified atmosphere with 5% CO2 at 37 °C. All cell lines were cultured in T75 cell culture flasks or cell culture dishes to reach 80–90% confluency and seeded at a standard density of 5 × 10^3 cells/0.32 cm^2, except for BJ cells at 2 × 10^3 cells/0.32 cm^2.
(§2) The assay was performed following previously reported method. The cells (BJ, Caco-2, PANC-1, U-118 MG, SK-MEL-30, and MDA-MB-231) were seeded at an established density into 96-well black plates. Measurement of intracellular superoxide, nitric oxide, and free thiol levels were assessed with the use of fluorogenic probes: dihydroethidium (Cayman Chemical, Ann Arbor, MI, USA, #12013), DAF-2 diacetate (Cayman Chemical, Ann Arbor, MI, USA, #85165), and Thiol Tracker Violet (Thermo Scientific, Waltham, MA, USA, #T10095). After compound treatment (72 h), the cells were probed at a final concentration of 5 µM each for 15 min at 37 °C. Quantifications were taken with a BioTek–Synergy H1 microplate reader, and the results are presented as mean values + SD.

U-118 MG cells [2] = experiment: Reactive nitrogen species level (DAF-2 diacetate probe), U-118 MG; type: cell-based; settings: 500 µM, 72 h
Protocol: as §1, §2

MDA-MB-231 cells [3] = experiment: Reactive nitrogen species level (DAF-2 diacetate probe), MDA-MB-231; type: cell-based, human; settings: MDA-MB-231, 500 µM, 72 h
Protocol: as §1
(§3) The assay was performed following previously reported method. […] Measurement of intracellular superoxide, nitric oxide, and free thiol levels were assessed with the use of fluorogenic probes: dihydroethidium (Cayman Chemical, Ann Arbor, MI, USA, #12013), DAF-2 diacetate (Cayman Chemical, Ann Arbor, MI, USA, #85165), and Thiol Tracker Violet (Thermo Scientific, Waltham, MA, USA, #T10095). […] Quantifications were taken with a BioTek–Synergy H1 microplate reader, and the results are presented as mean values + SD.

Caco-2 cells = experiment: Reactive oxygen species level (dihydroethidium probe), Caco-2; type: cell-based, human; settings: Caco-2, 500 µM, 72 h
Protocol: as §1, §2

BJ cells [4] = experiment: Reactive nitrogen species level (DAF-2 diacetate probe), BJ; type: cell-based; settings: 500 µM, 72 h
Protocol: as §1, §3

PANC-1 cells = experiment: Reactive nitrogen species level (DAF-2 diacetate probe), PANC-1; type: cell-based, human; settings: PANC-1, 500 µM, 72 h
Protocol: as §1, §3

MDA-MB-231 cells [5] = experiment: Reactive oxygen species level (dihydroethidium probe), MDA-MB-231; type: cell-based, human; settings: MDA-MB-231, 500 µM, 72 h
Protocol: as §1, §2

BJ cells [6] = experiment: Reactive oxygen species level (dihydroethidium probe), BJ; type: cell-based; settings: 500 µM, 72 h
Protocol: as §1, §2

[7] = test system: all cell lines tested (BJ, Caco-2, PANC-1, U-118 MG, SK-MEL-30, MDA-MB-231); experiment: Reduced glutathione level (Thiol Tracker Violet probe), all cell lines tested; type: cell-based; settings: 500 µM, 72 h
Protocol: as §1, §3

SMILES | level of reactive oxygen species (ROS) (U-118 MG cells [1]) | level of reactive nitrogen species (RNS) (U-118 MG cells [2]) | level of reactive oxygen species (ROS) (Caco-2 cells) | level of reactive oxygen species (ROS) (MDA-MB-231 cells [5]) | level of reactive oxygen species (ROS) (BJ cells [6]) | other results
CC1SC(NC2CCCC2)=NC1=O (centres unmarked) [Compound 3a, 2-(cyclopentylamino)-5-methylthiazol-4(5H)-one] | high increase | increase | – | – | – | level of reactive nitrogen species (RNS) (MDA-MB-231 cells [3]): increase
CCC1SC(NC2CCCC2)=NC1=O (centres unmarked) [Compound 3b, 2-(cyclopentylamino)-5-ethylthiazol-4(5H)-one] | high increase | – | high increase | – | – | level of reactive nitrogen species (RNS) (BJ cells [4]): increase
CCCC1SC(NC2CCCC2)=NC1=O (centres unmarked) [Compound 3c, 2-(cyclopentylamino)-5-propylthiazol-4(5H)-one] | – | – | high increase | – | – | –
CC(C)C1SC(NC2CCCC2)=NC1=O (centres unmarked) [Compound 3d, 2-(cyclopentylamino)-5-isopropylthiazol-4(5H)-one] | – | increase | – | – | – | –
CC1(C)SC(NC2CCCC2)=NC1=O [Compound 3e, 2-(cyclopentylamino)-5,5-dimethylthiazol-4(5H)-one] | high increase | – | high increase | – | – | level of reactive nitrogen species (RNS) (PANC-1 cells): increase
O=C1N=C(NC2CCCC2)SC1c1ccc(Br)cc1 (centres unmarked) [Compound 3g, 2-(cyclopentylamino)-5-(4-bromophenyl)thiazol-4(5H)-one] | – | – | high increase | increase | increase | level of reduced glutathione [7]: low level; also recorded: especially strong reduction
O=C1N=C(NC2CCCC2)SC12CCCCC2 [Compound 3h, 2-(cyclopentylamino)-1-thia-3-azaspiro[4.5]dec-2-en-4-one] | high increase | increase | – | increase | increase | –
O=C1N=C(NC2CCCC2)SC12CCC2 [Compound 3i, 6-(cyclopentylamino)-5-thia-7-azaspiro[3.4]oct-6-en-8-one] | high increase | – | high increase | increase | increase | –
